Data published in paper PMC8740163, “Voltage-Gated Sodium Channel Modulation by a New Spider Toxin Ssp1a Isolated From an Australian Theraphosid” (Frontiers in Pharmacology, 2021).

Columns and labels:
[1] = test system: hNaV1.1, 1.2, 1.6, 1.7, 1.3; conditions: ref Gonçalves et al., 2018, cited from earlier work
hNaV1.7 = hNaV1.7 (Homo sapiens, UniProt Q15858); format: cell-based
Chain of hNaV1.7 (Q07699 19-218): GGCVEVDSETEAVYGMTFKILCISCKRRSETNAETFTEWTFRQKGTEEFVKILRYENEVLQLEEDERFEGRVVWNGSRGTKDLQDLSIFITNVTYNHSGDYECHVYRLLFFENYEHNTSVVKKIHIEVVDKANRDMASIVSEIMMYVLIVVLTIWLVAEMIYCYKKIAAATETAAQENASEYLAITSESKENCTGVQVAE
Chain of hNaV1.7 (Q15858 whole entry): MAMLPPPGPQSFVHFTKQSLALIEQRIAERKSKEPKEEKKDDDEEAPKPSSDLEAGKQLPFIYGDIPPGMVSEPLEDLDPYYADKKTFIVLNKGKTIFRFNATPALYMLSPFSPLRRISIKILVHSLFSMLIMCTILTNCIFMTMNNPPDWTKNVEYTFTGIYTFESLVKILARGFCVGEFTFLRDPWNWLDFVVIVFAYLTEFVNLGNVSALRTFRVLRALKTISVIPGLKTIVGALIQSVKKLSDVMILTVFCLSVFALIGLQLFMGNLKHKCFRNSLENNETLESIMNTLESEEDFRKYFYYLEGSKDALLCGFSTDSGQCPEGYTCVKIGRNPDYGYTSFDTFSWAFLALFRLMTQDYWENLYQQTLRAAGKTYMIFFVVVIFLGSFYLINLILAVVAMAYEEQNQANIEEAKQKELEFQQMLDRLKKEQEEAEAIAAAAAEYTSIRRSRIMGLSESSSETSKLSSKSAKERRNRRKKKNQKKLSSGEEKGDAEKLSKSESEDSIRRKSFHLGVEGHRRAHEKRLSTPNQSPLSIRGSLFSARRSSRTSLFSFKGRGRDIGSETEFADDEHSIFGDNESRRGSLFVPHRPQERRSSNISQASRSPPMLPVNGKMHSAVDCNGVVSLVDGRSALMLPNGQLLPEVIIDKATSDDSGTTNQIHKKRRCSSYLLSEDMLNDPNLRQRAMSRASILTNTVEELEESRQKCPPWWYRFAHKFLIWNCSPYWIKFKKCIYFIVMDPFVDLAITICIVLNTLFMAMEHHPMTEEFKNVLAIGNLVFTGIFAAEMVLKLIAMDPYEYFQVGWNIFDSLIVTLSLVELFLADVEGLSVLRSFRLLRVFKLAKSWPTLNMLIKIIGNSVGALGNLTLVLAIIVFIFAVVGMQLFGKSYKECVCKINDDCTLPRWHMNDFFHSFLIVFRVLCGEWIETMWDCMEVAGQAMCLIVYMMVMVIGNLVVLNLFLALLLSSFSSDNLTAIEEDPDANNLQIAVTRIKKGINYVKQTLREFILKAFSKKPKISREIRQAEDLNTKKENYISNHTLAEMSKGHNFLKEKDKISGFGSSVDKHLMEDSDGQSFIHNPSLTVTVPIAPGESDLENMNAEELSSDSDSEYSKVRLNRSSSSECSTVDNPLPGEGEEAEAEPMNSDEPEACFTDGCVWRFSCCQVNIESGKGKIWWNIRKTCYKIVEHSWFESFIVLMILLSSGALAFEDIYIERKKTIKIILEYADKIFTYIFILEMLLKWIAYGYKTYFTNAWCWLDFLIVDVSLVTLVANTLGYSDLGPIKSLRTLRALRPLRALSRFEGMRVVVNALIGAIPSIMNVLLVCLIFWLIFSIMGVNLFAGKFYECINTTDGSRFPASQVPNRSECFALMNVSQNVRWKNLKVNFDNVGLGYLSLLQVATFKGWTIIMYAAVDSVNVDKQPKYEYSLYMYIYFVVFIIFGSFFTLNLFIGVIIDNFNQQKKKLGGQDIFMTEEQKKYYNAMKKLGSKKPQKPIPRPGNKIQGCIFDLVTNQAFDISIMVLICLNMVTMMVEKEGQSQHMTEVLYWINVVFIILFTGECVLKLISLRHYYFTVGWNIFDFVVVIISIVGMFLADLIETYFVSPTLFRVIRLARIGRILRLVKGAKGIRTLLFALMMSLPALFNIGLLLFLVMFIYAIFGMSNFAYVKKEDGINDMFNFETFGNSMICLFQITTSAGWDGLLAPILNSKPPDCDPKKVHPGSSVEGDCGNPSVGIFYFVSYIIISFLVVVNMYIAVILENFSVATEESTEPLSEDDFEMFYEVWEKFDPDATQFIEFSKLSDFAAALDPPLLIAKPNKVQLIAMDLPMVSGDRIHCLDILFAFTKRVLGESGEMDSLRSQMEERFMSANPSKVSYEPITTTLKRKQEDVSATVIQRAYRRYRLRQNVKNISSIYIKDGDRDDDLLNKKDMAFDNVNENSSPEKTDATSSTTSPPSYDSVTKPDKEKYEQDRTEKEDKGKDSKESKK

## HwTx-IV: NaSpTx1 family spider toxin, 40% sequence identity with Ssp1a
[1]; range over hNaV1.1, 1.2, 1.6, 1.7, 1.3, read-out: IC50 at five hNaV subtypes
  IC50: 41 to 190 nM
[1]
  rank order of potency: hNaV1.1 > 1.2 > 1.6 > 1.7 > 1.3

## NC1=N[C@H](O)[C@H]2[C@H]3O[C@]4(O)O[C@@H]([C@@H](O)[C@@]2(N1)[C@@H]4O)[C@]3(O)CO [Tetrodotoxin (TTX), Tetrodotoxin]
hNaV1.7
  inhibition of veratridine + OD1 activated responses: fully inhibited
